Laboratory results published in patent US7501513B2, “Immunosuppressive effects of pteridine derivatives” (4 AZA Bioscience NV, priority 2003, dated 2009).

How the values were obtained:
human TNF-α = experiment: TNF-α assay: suppression of TNF-α production by LPS-stimulated PBMC (ELISA); assay type: cell-based; details: LPS 1 μg/ml, 72 hours
Experimental: (§1) Peripheral blood mononuclear cells (herein referred as PBMC), in response to stimulation by lipopolysaccharide (LPS), a gram-negative bacterial endotoxin, produce various […], in particular human TNF-α and IL-1 β. Inhibition of the activation of PBMC can therefore be measured by the level of suppression of the production of TNF-α or IL-1 β by PBMC in response to stimulation by LPS.
(§2) Such inhibition measurement was performed as follows: PBMC were isolated from heparinized peripheral blood by density gradient centrifugation over Lymphoprep (commercially available from Nycomed, Norway). LPS was then added to the PMBC suspension in complete medium (10^6 cells/ml) at a final concentration of 1 μg/ml. The pteridine derivative to be tested was added at different concentrations (0.1 μM, 1 μM and 10 μM) and the cells were incubated at 37° C. for 72 hours in 5% CO2. The supernatants were collected, then TNF-α and/or IL-1 β concentrations were measured with respectively an anti-TNF-α antibody or an anti-IL-1 β antibody in a sandwich ELISA (Duo Set ELISA human TNFα, commercially available from R&D Systems, United Kingdom). The calorimetric reading of the ELISA was measured by a Multiskan RC plate reader (commercially available from ThermoLabsystems, Finland) at 450 nm (reference wavelength: 690 nm). Data analysis was performed with Ascent software 2.6. (also from ThermoLabsystems, Finland): a standard curve (recombinant human TNFα) was drawn and the amount (pg/ml) of each sample on the standard curve was determined.
The % suppression of human TNFα production or human IL-1 β by the pteridine derivatives of the invention (drugs) was calculated using the formula: […]
as §1, with “(hereinafter LPS),” for “(LPS),”, “TNF-α.” for “TNF-α and IL-1 β.”, “TNF-α” for “TNF-α or IL-1 β”
as §2, with “TNF-α” for “TNF-α and/or IL-1 β”, “with” for “with respectively”, “anti-TNF-α” for “anti-TNF-α antibody or an anti-IL-1 β”, “TNF-α,” for “TNFα,”, “colorimetric” for “calorimetric”
The % suppression of human TNFα production by the pteridine derivatives of the invention (drugs) was calculated using the formula: […]

[1] = tested on: Peripheral blood mononuclear cells; experiment: Mixed lymphocyte reaction (MLR) test; assay type: cell-based, human; details: Table 3, 50% suppression of the MLR
Experimental: Pteridine derivatives were first dissolved (10 mM) in dimethylsulfoxide (hereinafter referred as DMSO) and further diluted in culture medium before use for the following in vitro experiments. The commercially available culture medium consisted of RPMI-1640+10% foetal calf serum (FCS). Some pteridine derivatives described the previous examples were tested in the following lymphocyte activation tests:
(§3) Peripheral blood mononuclear cells (hereinafter referred as PBMC) were isolated from heparinized peripheral blood by density gradient centrifugation over Lymphoprep (Nycomed, Maorstua, Norway). Allogeneic PBMC or Eppstein-Barr Virus-transformed human B cells [commercially available under the trade name RPMI1788 (ATCC name CCL156)] which strongly express B7-1 and B7-2 antigens were used as stimulator cells after irradiation with 30 Gy. MLR was performed in triplicate wells. After 5 days incubation at 37° C., 1 μCi [^3H]-thymidine was added to each cup. After a further 16 hours incubation, cells were harvested and counted in a β-counter. Inhibition of proliferation by a compound (drug) described in some of the previous examples was counted using the formula:
(§4) [formula] wherein cpm is the thymidine count per minute. The MLR assay is regarded by those skilled in the art as an in vitro analogue of the transplant rejection since it is based on the recognition of allogeneic major histocompatibility antigens on the stimulator leukocytes, by responding lymphocytes. Assays for CD3 and CD 28
Pteridine derivatives were first dissolved (10 mM) in dimethylsulfoxide (hereinafter referred as DMSO) and further diluted in culture medium before use for the following in vitro experiments. The commercially available culture medium consisted of RPMI-1640+10% foetal calf serum (FCS). Some pteridine derivatives described in the previous examples (as indicated in table 3 below) were tested in the following mixed lymphocyte reaction (MLR) assay.
as §3, with “CCL156)]which” for “CCL156)] which”
as §4, with “lymphocytes.” for “lymphocytes. Assays for CD3 and CD 28”

## CC(C)Oc1nc(N)nc2c1ncc[n+]2[O-] [Example 10, 2-amino-4-isopropoxypteridine-N^8-oxide]
Human TNF-α; Table 2
  IC50: 4 µM

## CCOc1nc(N)nc2ncc(-c3ccc(OC)cc3)nc12 [Example 13, 2-amino-6-(p-methoxyphenyl)-4-ethoxy-pteridine]
Human TNF-α; Homo sapiens, PBMC, Table 2
  IC50: 4.5 µM

## CCOc1nc(N)nc2ncc(-c3ccccc3OC)nc12 [Example 14, 2-amino-6-(o-methoxyphenyl)-4-ethoxy-pteridine]
Human TNF-α; Homo sapiens, PBMC, Table 2
  IC50: > 10 µM

## CC(C)Oc1nc(N)nc2ncc(-c3ccc(C(F)(F)F)cc3)nc12 [Example 36, 2-amino-6-(p-trifluoromethylphenyl)-4-isopropoxypteridine]
Human TNF-α; Homo sapiens, PBMC, Table 2
  IC50: 9.1 µM

## CC(C)Oc1nc(N)nc2ncc(-c3ccc(F)c(F)c3)nc12 [Example 37, 2-amino-6-(3,4-difluorophenyl)-4-isopropoxypteridine]
Human TNF-α; Homo sapiens, PBMC, Table 2
  IC50: 6.6 µM

## COc1ccc(-c2cnc3nc(N)nc(OC(C)C)c3n2)cc1 [Example 38]
Human TNF-α; Table 2
  IC50: 6.2 µM

## CCOc1ccc(-c2cnc3nc(N)nc(OC(C)C)c3n2)cc1 [Example 39, 2-amino-6-(p-ethoxyphenyl)-4-isopropoxypteridine]
Human TNF-α; Homo sapiens, PBMC, Table 2
  IC50: > 10 µM

## CC(C)Oc1nc(N)nc2ncc(-c3ccc(C#N)cc3)nc12 [Example 42, 2-amino-6-(p-cyanophenyl)-4-isopropoxypteridine]
Human TNF-α; Homo sapiens, PBMC, Table 2
  IC50: 6.3 µM

## COc1ccc(-c2cnc3nc(NCc4cccs4)nc(NCc4cccs4)c3n2)cc1OC [Example 68, 2,4-di-(thienyl-2-methylamino)-6-(3,4-dimethoxy-Phenyl) pteridine]
[1]
  IC50: 0.8 µM

## CC(=O)Nc1cccc(-c2cnc3nc(N)nc(N4CCOCC4)c3n2)c1 [Example 73, 2-amino-4-morpholino-6-(3-acetanilide)pteridine]
[1]
  IC50: 6.4 µM

## Nc1cccc(-c2cnc3nc(N)nc(N4CCOCC4)c3n2)c1 [Example 75, 2-amino-4-morpholino-6-(3-aminophenyl)pteridine]
[1]; Homo sapiens, PBMC
  IC50: 4.1 µM

## Nc1nc(N2CCOCC2)c2nc(-c3ccc(NC(=O)c4ccccc4)cc3)cnc2n1 [Example 76, 2-amino-4-morpholino-6-(4-benzoylaminophenyl)pteridine]
[1]; Homo sapiens, PBMC
  IC50: 2.1 µM

## Nc1nc(N2CCOCC2)c2nc(-c3ccc(NC(=O)COc4ccccc4)cc3)cnc2n1 [Example 77, 2-amino-4-morpholino-6-(4-phenoxyacetylaminophenyl)pteridine]
[1]; Homo sapiens, PBMC
  IC50: 2.5 µM

## CCC(=O)Nc1ccc(-c2cnc3nc(N)nc(N4CCOCC4)c3n2)cc1 [Example 78, 2-amino-4-morpholino-6-(4-propionylaminophenyl)pteridine]
[1]; Homo sapiens, PBMC
  IC50: 6.5 µM

## Nc1nc(N2CCOCC2)c2nc(-c3ccc(NC(=O)c4ccco4)cc3)cnc2n1 [Example 79, 2-amino-4-morpholino-6-(4-furoylaminophenyl)pteridine]
[1]
  IC50: 7.8 µM

## Nc1nc(N2CCOCC2)c2nc(-c3ccc(NC(=O)C4CCCCC4)cc3)cnc2n1 [Example 80, 2-amino-4-morpholino-6-(4-cyclohexanoylaminophenyl)pteridine]
[1]; Homo sapiens, PBMC
  IC50: 4.1 µM

## Nc1nc(N2CCOCC2)c2nc(-c3ccc(NC(=O)c4ccncc4)cc3)cnc2n1 [Example 83, 2-amino-4-morpholino-6-(4-isonicotinoylaminophenyl)pteridine]
[1]; Homo sapiens, PBMC
  IC50: 3.9 µM

## Nc1nc(N2CCOCC2)c2nc(-c3ccc(NC(=O)c4cccc5ccccc45)cc3)cnc2n1 [Example 84, 2-amino-4-morpholino-6-(4-naphtoylaminophenyl)pteridine]
[1]
  IC50: 4 µM

## Nc1nc(N2CCOCC2)c2nc(-c3cccc(NC(=O)c4ccccc4)c3)cnc2n1 [Example 88, 2-amino-4-morpholino-6-(3-benzoylaminophenyl)pteridine]
[1]; Homo sapiens, PBMC
  IC50: 4.9 µM

## Nc1nc(N2CCOCC2)c2nc(-c3cccc(NS(=O)(=O)c4ccccc4)c3)cnc2n1 [Example 89, 2-amino-4-morpholino-6-(3-benzensulfonylaminophenyl)pteridine]
[1]; Homo sapiens, PBMC
  IC50: 0.8 µM

## Nc1nc(N2CCOCC2)c2nc(-c3cccc(NC(=O)COc4ccccc4)c3)cnc2n1 [Example 90, 2-amino-4-morpholino-6-(3-phenoxyacetylaminophenyl)pteridine]
[1]; Homo sapiens, PBMC
  IC50: 10 µM

## Nc1nc(N2CCOCC2)c2nc(-c3cccc(NC(=O)c4ccncc4)c3)cnc2n1 [Example 91, 2-amino-4-morpholino-6-(3-isonicotinoylaminophenyl)pteridine]
[1]; Homo sapiens, PBMC
  IC50: 10 µM

## Nc1nc(N2CCOCC2)c2nc(-c3cccc(NC(=O)C4CCCCC4)c3)cnc2n1 [Example 92, 2-amino-4-morpholino-6-(3-cyclohexanoylaminophenyl)pteridine]
[1]; Homo sapiens, PBMC
  IC50: 2.9 µM

## CCOC(=O)CCC(=O)Nc1cccc(-c2cnc3nc(N)nc(N4CCOCC4)c3n2)c1 [Example 94, 2-amino-4-morpholino-6-(3-ethylsuccinylaminophenyl)pteridine]
Human TNF-α; Table 4
  IC50: 5.5 µM

## Nc1nc(N2CCOCC2)c2nc(-c3cccc(NC(=O)COCc4ccccc4)c3)cnc2n1 [Example 96, 2-amino-4-morpholino-6-(3-benzyloxyacetylaminophenyl)pteridine]
[1]; Homo sapiens, PBMC
  IC50: 4.1 µM

## CC(C)(C)OC(=O)N[C@H](Cc1ccccc1)C(=O)Nc1cccc(-c2cnc3nc(N)nc(N4CCOCC4)c3n2)c1 [Example 99, 2-amino-4-morpholino-6-[3-Boc-(D)-phenylalanine-aminophenyl]pteridine]
[1]
  IC50: 4.1 µM

## CCOC(=O)CCCOc1ccc(-c2cnc3nc(N)nc(N4CCOCC4)c3n2)cc1 [Example 108, 2-amino-4-morpholino-6-(4-phenoxy-butyric acid ethyl ester) pteridine]
Human TNF-α; Table 4
  IC50: 0.9 µM

## CCOC(=O)COc1ccc(-c2cnc3nc(N)nc(N4CCOCC4)c3n2)cc1 [Example 109, 2-amino-4-morpholino-6-(4-phenoxy-acetic acid ethyl ester) pteridine]
Human TNF-α; Table 4
  IC50: 0.6 µM

## COCCOc1ccc(-c2cnc3nc(N)nc(N4CCOCC4)c3n2)cc1 [Example 110, 2-amino-4-morpholino-6-(4-(2-methoxyethoxy)-phenyl)pteridine]
[1]; Homo sapiens, PBMC
  IC50: 5.4 µM

## COc1ccc(-c2cnc3nc(N)nc(NCc4ccccc4)c3n2)cc1OC [Example 113]
Human TNF-α; Table 4
  IC50: 6.5 µM

## COc1ccc(-c2cnc3nc(N)nc(N4CC=CCC4)c3n2)cc1OC [Example 117]
Human TNF-α; Table 4
  IC50: 0.5 µM
